Reference: article PMC6411751, “Use of machine learning to identify novel, behaviorally active antagonists of the insect odorant receptor co-receptor (Orco) subunit” (Scientific Reports, 2019)
Read-outs that look alike come from different tables or passages of the source.

Legend:
Dmel\Or19a = tested on: Dmel\Or19a; design: method as in ref 1 Münch, D., Galizia, C.G. DoOR 2.0 (2016); conditions: ref 1 Münch, D., Galizia, C.G. DoOR 2.0 (2016); cited from earlier work
Dmel\Or85b = tested on: Dmel\Or85b; design: method as in ref 1 Münch, D., Galizia, C.G. DoOR 2.0 (2016); conditions: ref 1 Münch, D., Galizia, C.G. DoOR 2.0 (2016); cited from earlier work
Dmel\Or92a = tested on: Dmel\Or92a; design: method as in ref 1 Münch, D., Galizia, C.G. DoOR 2.0 (2016); conditions: ref 1 Münch, D., Galizia, C.G. DoOR 2.0 (2016); cited from earlier work
Dmel\Or22a = tested on: Dmel\Or22a; design: method as in ref 1 Münch, D., Galizia, C.G. DoOR 2.0 (2016); conditions: ref 1 Münch, D., Galizia, C.G. DoOR 2.0 (2016); cited from earlier work
Agam\Orco = molecular target: T1, Agam\Orco (Anopheles gambiae, UniProt Q7QCC7); test: cell-based; type: cell-based
T1 construct: expressed in transfected cells; host or cells: Xenopus laevis oocytes injected with capped cRNA (plasmid pT7TS, gift of L. Zwiebel)
T1 sequence (Q7QCC7 1-478): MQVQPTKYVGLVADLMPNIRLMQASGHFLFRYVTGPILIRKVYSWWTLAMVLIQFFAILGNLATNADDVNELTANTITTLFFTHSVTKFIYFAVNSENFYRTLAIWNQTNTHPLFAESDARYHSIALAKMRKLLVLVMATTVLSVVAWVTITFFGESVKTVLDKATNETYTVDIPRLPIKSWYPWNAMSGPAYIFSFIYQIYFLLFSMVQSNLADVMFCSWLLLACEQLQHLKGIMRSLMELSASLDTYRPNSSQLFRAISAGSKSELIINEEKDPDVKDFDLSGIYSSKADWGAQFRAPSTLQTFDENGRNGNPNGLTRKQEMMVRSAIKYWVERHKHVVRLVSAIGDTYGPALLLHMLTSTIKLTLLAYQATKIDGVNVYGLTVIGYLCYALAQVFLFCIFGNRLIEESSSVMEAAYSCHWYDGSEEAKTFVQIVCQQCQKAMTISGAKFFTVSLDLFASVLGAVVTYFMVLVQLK
Protocol: A 2 hr incubation with collagenase B (Roche) was used to remove follicle cells from oocytes. Capped cRNA for Agam\Orco was synthesized using mMessage mMachine kits (Thermo Fisher Scientific). 25 ng of cRNA was injected into stage V–VI oocytes, followed by a 2–5 day incubation at 18 °C in Barth’s saline (in mM: 88 NaCl, 1 KCl, 2.4 NaHCO3, 0.3 CaNO3, 0.41 CaCl2, 0.82 MgSO4, 15 HEPES, pH 7.4, and 0.05 g/L tetracycline, 0.05 g/L ciprofloxacin, 0.1 g/L amikacin) prior to electrophysiological recordings.
(§1) An automated parallel electrophysiology system (OpusExpress 6000 A, Molecular Devices) was used to record Orco agonist (OLC12) or odorant induced currents under two-electrode voltage clamp. Oocytes were perfused with ND96 (in mM: 96 NaCl, 2 KCl, 1 CaCl2, 1 MgCl2, 5 HEPES, pH 7.4). DMSO was used to prepare 1 M or 100 mM stock solutions of test compounds, which were then diluted in ND96 on the day of the experiment. Compounds were applied at a flow rate of 1.0 mL/min, with extensive washing in ND96 at 4.6 mL/min between applications. Micropipettes with resistances of 0.2–2.0 MΩ were filled with 3 M KCl. The holding potential was −70 mV. Current responses were filtered (4-pole, Bessel, low pass) at 20 Hz (−3 db) and sampled at 100 Hz. OpusXpress 1.1 software (Molecular Devices) was used to capture and store current responses.
To measure antagonist activity at Orco, Agam\Orco was activated by the Orco agonist OLC12[34]. […] The current response to OLC12 in the presence of antagonist candidate was compared to the mean of the preceding two responses to OLC12 alone and presented as a percentage[34],[35]. This value was then normalized to the value obtained when the assay was run in the absence of antagonist candidate (sham).
During development of the training panel (Fig. 2, Tables S1 and S2), all compounds not previously known to be Orco antagonists were tested at a concentration of 3 mM. […] Concentration-inhibition curves were constructed for all compounds eliciting >20 percent inhibition at 3 mM. The same concentration and criteria were used during screening of predicted actives (Fig. 4D) and predicted inactives (Fig. 5C).
Clampfit 9.1 software (Molecular Devices) was used to perform initial analysis of electrophysiological data. Prism 7 (Graphpad) was used for curve fitting. Concentration-inhibition data were fit to the equation: I = Imax/(1 + (X/IC50)^n) where I represents the current response at a given concentration of inhibitor, X; Imax is the maximal response in the absence of inhibitor; IC50 is the concentration of inhibitor present that allows a half maximal response from OLC12; n is the apparent Hill coefficient.

Dmel\Or69a = tested on: Dmel\Or69a; design: method as in ref 1 Münch, D., Galizia, C.G. DoOR 2.0 (2016); conditions: ref 1 Münch, D., Galizia, C.G. DoOR 2.0 (2016); cited from earlier work
Dmel\Or83c = tested on: Dmel\Or83c; design: method as in ref 1 Münch, D., Galizia, C.G. DoOR 2.0 (2016); conditions: ref 1 Münch, D., Galizia, C.G. DoOR 2.0 (2016); cited from earlier work
Agam\ORs = tested on: Agam\ORs; design: method as in ref 2-5 (a number printed in a supplementary file, which may have a reference list of its own: not looked up in the article's list); conditions: cited from earlier work
Dmel\Or71a = tested on: Dmel\Or71a; design: method as in ref 1 Münch, D., Galizia, C.G. DoOR 2.0 (2016); conditions: ref 1 Münch, D., Galizia, C.G. DoOR 2.0 (2016); cited from earlier work
D. melanogaster larvae = test: Larval chemotaxis assay (attraction to ethyl acetate); type: in vivo, Drosophila melanogaster; conditions: 10 µL of EA diluted 1:10^−6 in mineral oil vs mineral oil alone; mean ± SEM
Protocol: We have previously provided a detailed description of these methods. Briefly, Canton-S (CS) flies were used as wild type (wt). The experimental chamber was a 100 × 15 mm polystyrene Petri dish (VWR) with 20 mL of 1.1% agarose coating the bottom. In this assay, 50 third-instar larvae were placed inside a “starting circle” at the center of the plate (the circle was drawn on the outside bottom of the plate). A line was also drawn that divided the plate in half. Small filter paper discs (d = 6 mm, Whatman Cellulose Filter Paper, # 1030 023) were placed on opposite sides of the plate (see Fig. 8A). Onto each filter paper disc was placed 10 μL of solution, containing either vehicle of dilution (mineral oil), odorant attractant (EA, diluted in mineral oil) or an Orco antagonist compound (diluted in mineral oil). The sides of the plate on which the compounds or vehicle were placed were alternated from experiment to experiment.
In order to test Orco antagonists for the ability to affect the chemotaxis assay, a large (d = 9 cm) filter paper (Whatman Filter Paper # D00161-S) was adhered with double-sided tape to the inside of the Petri dish lid. This allowed the larvae to be exposed to Orco antagonists in an airborne context. For light repulsion experiments, we used a Zeiss CL6000 LED light source at 76% intensity. Following the 5 min migratory period, plates were photographed, coded and then blind counted. Any larvae still within the starting circle or touching the center line were excluded from the analysis. A Response Index (RI) was calculated as RI = (S − C)/(S + C), where S is the number of larvae on the stimulus (EA) side and C is the number of larvae on the control (mineral oil) side. RI = 1 would indicate complete attraction, RI = −1 would indicate complete repulsion, and RI = 0 would indicate no preference. Statistical significance was assessed using a one-way analysis of the variance followed by Dunnett’s’s post-test.

Dmel\Or67a = tested on: Dmel\Or67a; design: method as in ref 1 Münch, D., Galizia, C.G. DoOR 2.0 (2016); conditions: ref 1 Münch, D., Galizia, C.G. DoOR 2.0 (2016); cited from earlier work
Cqui\Or21 + Cqui\Orco = test: Inhibition of heteromeric OR in oocytes (3-methylindole or OLC12 activation); type: cell-based, Culex quinquefasciatus; conditions: Orco agonist activation of Cqui\Or21 + Cqui\Orco
Protocol: as §1
(§2) To measure the ability of Orco antagonists to inhibit odorant activation, oocytes expressing heteromeric ORs (Orco + ORX) were exposed to a 30 sec application of odorant followed by a 20 min wash. Oocytes were then exposed to a 90 sec application of Orco antagonist, immediately followed by a 30 sec co-application of Orco antagonist and odorant. The current response to odorant in the presence of Orco antagonist was compared to the preceding response to odorant alone and represented as a percentage. This value was then normalized to the value obtained when the assay was run in the absence of antagonist (sham).
(§3) Figure S3. Effects of Orco antagonists on heteromeric ORs. […]
(§4) heteromeric complexes of odorant specificity subunits and Orco. The Orco antagonists tested were 3-isopropyl-6-methyl-catechol (3 I6 MC), a potent compound from the input training set, and two compounds id e ntified in Fig u re 4 an d Ta b le 1 : 2-tert-butyl-6-methylphenol (B MP ) and linalyl formate (LF) . These compounds were tested for antagonist activity against odorant activation of three ORs from Anopheles gambiae (Agam\Or28 + Agam\Orco, Agam\Or39 + A ga m\Orco, Agam\Or65 + A ga m\Orco), o ne O R fro m Culex quinquefasciatus, the southern house mosquito (Cq u i\Or21 + Cqui\Orco) an d on e O R f ro m Drosophila melanogaster (Dme l\Or35a + Dmel\Orco). Each OR was activated by its cognate odorant agonist applied at an approximate EC50 concentration. […]
(§5) SEM (n = 4). […] Statistical significance of the data in each panel was assessed by one-way analysis of variance followed by Dunnett’s multiple comparison test using the pre-normalized values for each antagonist compared to the values obtained in the sham recordings (*, p < 0 .0 5; **, p < 0. 01; ***, p < 0 . 00 1 ).

Dmel\Or35a + Dmel\Orco = molecular target: T2, Dmel\Or35a + Dmel\Orco (Drosophila melanogaster, UniProt Q9VNB5); test: Inhibition of heteromeric OR in oocytes (hexanol or OLC12 activation); type: cell-based; conditions: Orco agonist activation of Dmel\Or35a + Dmel\Orco
T2 construct: expressed in transfected cells; host or cells: Xenopus laevis oocytes
T2 sequence (Q9VNB5 1-486): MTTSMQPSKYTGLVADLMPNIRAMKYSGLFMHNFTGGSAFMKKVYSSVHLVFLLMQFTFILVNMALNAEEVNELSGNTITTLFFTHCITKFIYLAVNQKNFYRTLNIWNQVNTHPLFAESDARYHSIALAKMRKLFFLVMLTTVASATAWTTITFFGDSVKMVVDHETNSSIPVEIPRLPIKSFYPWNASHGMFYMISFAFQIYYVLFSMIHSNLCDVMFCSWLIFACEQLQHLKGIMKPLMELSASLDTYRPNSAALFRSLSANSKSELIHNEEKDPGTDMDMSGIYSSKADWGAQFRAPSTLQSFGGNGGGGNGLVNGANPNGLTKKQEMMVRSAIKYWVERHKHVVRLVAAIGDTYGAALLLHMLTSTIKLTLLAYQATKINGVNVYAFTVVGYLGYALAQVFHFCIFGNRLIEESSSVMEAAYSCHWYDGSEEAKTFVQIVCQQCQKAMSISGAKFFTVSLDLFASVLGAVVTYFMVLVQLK
T2 sequence (Q9V3Q2 1-409 partner): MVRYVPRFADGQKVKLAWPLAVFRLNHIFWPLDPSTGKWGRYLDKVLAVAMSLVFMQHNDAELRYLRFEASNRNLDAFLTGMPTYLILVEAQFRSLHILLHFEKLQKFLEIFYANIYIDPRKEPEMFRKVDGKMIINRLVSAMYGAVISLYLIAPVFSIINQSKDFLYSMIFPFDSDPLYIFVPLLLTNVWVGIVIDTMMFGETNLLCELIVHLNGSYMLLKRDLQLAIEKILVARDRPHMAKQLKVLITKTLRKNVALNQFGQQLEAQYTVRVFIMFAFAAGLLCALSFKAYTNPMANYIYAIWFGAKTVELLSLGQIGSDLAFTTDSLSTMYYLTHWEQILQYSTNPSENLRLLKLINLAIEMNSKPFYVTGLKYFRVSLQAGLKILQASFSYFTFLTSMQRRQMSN
Protocol: as §1, §2, §3, §4, §5

[1] = Table S1, training actives, Agam\Orco activated by 30 µM OLC12, mean ± SEM (n = 3-8), read-out: IC50

## CC(C)c1ccc(C=O)cc1 [4-isopropylbenzaldehyde]
Dmel\Or19a
  scaled response from DoOR (max = 1.0): 0.351
Dmel\Or85b
  scaled response from DoOR (max = 1.0): 0.222

## CC(C)=CCC/C(C)=C/C=O [citral]
Dmel\Or92a
  scaled response from DoOR (max = 1.0): 0.325
Dmel\Or22a
  scaled response from DoOR (max = 1.0): 0.140
Agam\Orco; [1]
  IC50: 452 ± 44 µM
Dmel\Or69a
  scaled response from DoOR (max = 1.0): 0.483

## CC(C)=CCC[C@@H](C)CC=O [citronellal]
Dmel\Or83c
  scaled response from DoOR (max = 1.0): 0.092
Agam\ORs; Or5, Or12, Or15, Or25, Or45, Or73
  activity at Agam\ORs (basal activity): inhibition of basal
Agam\ORs; Or30, Or31, Or48, Or50, Or75
  activity at Agam\ORs: activation

## C=Cc1ccc(O)cc1 [4-hydroxystyrene]
Dmel\Or71a
  scaled response from DoOR (max = 1.0): 0.131

## CCOC(C)=O [ethyl acetate, reference compound]
D. melanogaster larvae
  response index (RI): 0.76 ± 0.08
Agam\Orco; read-out: inhibition of Agam\Orco (OLC12 response) at 3 mM, 3 mM compound, 30 µM OLC12
  inhibition at 3000 µM: ≤ 20%

## CCc1ccccc1O [2-ethylphenol]
Agam\Orco
  IC50: 261 ± 14 µM
Agam\Orco; Agam\Orco IC50 compared with BMP
  loss of potency relative to BMP: 5.5 fold
Agam\ORs; Or2, Or9, Or10, Or11, Or14, Or18, Or20, Or38, Or41, Or50, Or57
  activity at Agam\ORs: activation
Dmel\Or69a
  scaled response from DoOR (max = 1.0): 0.356

## O=C/C=C/c1ccccc1 [trans-cinnamaldehyde]
Dmel\Or19a
  scaled response from DoOR (max = 1.0): 0.112
Agam\Orco
  IC50: 1870 ± 94 µM

## CCOC(=O)/C=C/c1ccccc1 [ethyl-trans-cinnamate]
Agam\Orco; [1]
  IC50: 134 ± 16 µM
Dmel\Or67a
  scaled response from DoOR (max = 1.0): 0.143

## CC(O)CCc1ccccc1 (stereo not shown) [4-phenyl-2-butanol]
Dmel\Or71a
  scaled response from DoOR (max = 1.0): 0.063

## Cc1ccc(C(C)C)cc1 [p-cymene]
Dmel\Or71a
  scaled response from DoOR (max = 1.0): 0.063

## CC(C)=CCCC(C)=CCCC(C)=CC=O [farnesal]
Dmel\Or83c
  scaled response from DoOR (max = 1.0): 0.046

## CCn1c(SCC(=O)Nc2ccc(C(C)C)cc2)nnc1-c1ccncc1 [OLC12, 2-((4-Ethyl-5-(4-pyridinyl)-4H-1,2,4-triazole-3-yl)sulfanyl)-N-(4-isopropylphenyl)acetamide, reference compound]
Cqui\Or21 + Cqui\Orco
  approximate EC25: ~3 µM
Dmel\Or35a + Dmel\Orco
  approximate EC25: ~10 µM
